Measurements taken from ChEMBL document CHEMBL1909046, “DrugMatrix in vitro pharmacology data”.

Columns and labels:
[1] = biological target: T1, C-X-C chemokine receptor type 2 (Homo sapiens, UniProt P25025); format: cell membranes, Membrane; settings: cho-k1
T1 sequence (P25025 whole entry): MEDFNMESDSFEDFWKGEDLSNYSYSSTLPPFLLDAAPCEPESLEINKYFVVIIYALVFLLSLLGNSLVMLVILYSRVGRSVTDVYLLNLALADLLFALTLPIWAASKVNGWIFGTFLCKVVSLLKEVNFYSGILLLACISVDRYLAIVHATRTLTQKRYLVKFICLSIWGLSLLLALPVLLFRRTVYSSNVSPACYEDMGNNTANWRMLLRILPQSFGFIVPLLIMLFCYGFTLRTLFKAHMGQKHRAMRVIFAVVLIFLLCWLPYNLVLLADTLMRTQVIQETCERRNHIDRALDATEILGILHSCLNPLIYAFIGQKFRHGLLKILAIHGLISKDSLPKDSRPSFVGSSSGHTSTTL

Melanocortin receptor 5 = Melanocortin receptor 5 (Homo sapiens, UniProt P33032); format: cell membranes, Membrane; settings: hek293
[2] = biological target: T2, Angiotensin-converting enzyme (Oryctolagus cuniculus, UniProt P12822); format: tissue-based, Lung;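 note: enzymatic inhibition of angiotensin-converting enzyme measured with FAPGG as the substrate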
T2 sequence (P12822 whole entry): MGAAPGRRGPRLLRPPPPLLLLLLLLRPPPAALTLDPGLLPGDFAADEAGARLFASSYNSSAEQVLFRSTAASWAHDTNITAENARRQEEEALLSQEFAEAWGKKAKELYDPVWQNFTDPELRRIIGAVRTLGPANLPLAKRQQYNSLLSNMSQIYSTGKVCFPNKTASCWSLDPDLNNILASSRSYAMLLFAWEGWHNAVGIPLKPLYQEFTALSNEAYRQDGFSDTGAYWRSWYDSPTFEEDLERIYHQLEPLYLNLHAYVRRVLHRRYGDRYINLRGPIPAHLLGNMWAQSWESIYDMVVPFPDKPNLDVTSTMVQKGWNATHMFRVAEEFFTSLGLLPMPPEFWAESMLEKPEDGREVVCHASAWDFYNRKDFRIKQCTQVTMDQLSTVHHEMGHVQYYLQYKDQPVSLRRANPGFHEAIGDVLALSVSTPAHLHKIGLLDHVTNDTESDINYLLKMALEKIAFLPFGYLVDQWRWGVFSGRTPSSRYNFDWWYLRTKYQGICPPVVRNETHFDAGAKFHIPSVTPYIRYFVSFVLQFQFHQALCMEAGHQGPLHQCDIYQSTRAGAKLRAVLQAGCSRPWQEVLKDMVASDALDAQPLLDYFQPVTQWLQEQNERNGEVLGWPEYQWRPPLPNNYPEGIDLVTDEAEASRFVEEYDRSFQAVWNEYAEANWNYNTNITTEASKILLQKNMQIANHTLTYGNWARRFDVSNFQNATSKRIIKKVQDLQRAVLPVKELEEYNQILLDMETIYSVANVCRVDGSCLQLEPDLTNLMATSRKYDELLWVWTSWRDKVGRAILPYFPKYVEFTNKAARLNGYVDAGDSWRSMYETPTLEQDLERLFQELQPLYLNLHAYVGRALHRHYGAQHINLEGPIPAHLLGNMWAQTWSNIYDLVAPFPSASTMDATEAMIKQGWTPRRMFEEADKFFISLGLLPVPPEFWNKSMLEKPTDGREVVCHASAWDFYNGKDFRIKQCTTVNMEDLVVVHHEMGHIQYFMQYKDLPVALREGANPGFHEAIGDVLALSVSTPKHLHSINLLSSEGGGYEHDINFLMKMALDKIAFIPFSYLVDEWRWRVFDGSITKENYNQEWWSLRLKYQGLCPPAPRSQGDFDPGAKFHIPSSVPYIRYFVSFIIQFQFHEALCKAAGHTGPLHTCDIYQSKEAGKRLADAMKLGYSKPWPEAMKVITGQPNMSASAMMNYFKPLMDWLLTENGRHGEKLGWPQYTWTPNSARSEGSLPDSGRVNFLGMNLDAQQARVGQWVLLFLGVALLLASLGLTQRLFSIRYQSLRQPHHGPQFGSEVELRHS

Interstitial collagenase = biological target: T3, Interstitial collagenase (Homo sapiens, UniProt P03956); assay: biochemical; format: tissue-based, Rheumatoid synovial fibroblasts;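 note: MMP-1 enzyme inhibition assay using a peptide substrate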
T3 sequence (P03956 whole entry): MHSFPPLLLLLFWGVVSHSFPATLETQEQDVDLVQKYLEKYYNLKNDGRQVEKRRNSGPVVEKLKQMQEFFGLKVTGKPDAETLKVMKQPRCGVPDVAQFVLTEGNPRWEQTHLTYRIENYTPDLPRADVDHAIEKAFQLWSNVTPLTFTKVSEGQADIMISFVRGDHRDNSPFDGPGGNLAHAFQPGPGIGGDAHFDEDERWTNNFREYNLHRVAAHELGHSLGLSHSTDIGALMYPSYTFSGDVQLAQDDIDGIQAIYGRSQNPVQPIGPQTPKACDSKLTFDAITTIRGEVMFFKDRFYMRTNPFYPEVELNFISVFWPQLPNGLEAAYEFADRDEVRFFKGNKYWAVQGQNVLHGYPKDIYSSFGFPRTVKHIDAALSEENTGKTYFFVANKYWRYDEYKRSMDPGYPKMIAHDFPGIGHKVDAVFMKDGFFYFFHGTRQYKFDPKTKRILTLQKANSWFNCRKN

[3] = biological target: Mitogen-activated protein kinase 14 (Homo sapiens, UniProt Q16539); parameters: species or system Escherichia coli;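 note: inhibition of p38alpha enzyme activity in a biochemical kinase assay, with myelin basic protein serving as substrate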
[4] = biological target: Tyrosine-protein kinase Fyn (Homo sapiens, UniProt P06241); assay: biochemical; format: cell-based, Insect cells; settings: insect cells;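 note: enzymatic inhibition of Fyn kinase activity measured with Poly(Glu:Tyr) as the phosphorylation substrate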
Cytochrome P450 2A6 = biological target: T4, Cytochrome P450 2A6 (Homo sapiens, UniProt P11509); settings: bti-tn-5b1-4
T4 sequence (P11509 whole entry): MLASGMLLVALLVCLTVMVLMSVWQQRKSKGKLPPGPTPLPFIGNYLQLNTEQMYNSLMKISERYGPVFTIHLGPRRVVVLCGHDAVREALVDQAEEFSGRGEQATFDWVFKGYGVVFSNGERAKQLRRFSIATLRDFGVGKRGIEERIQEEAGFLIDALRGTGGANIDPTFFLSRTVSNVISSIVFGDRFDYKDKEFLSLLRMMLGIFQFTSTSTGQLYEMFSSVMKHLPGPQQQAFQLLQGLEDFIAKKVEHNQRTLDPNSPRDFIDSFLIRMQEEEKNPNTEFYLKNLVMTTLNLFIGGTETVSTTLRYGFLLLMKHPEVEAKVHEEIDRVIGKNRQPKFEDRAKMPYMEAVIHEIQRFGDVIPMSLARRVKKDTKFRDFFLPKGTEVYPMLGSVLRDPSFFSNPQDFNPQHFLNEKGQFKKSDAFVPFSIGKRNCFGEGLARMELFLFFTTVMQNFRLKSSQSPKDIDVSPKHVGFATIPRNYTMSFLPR
Note: in other assays of this panel Not Active means under 50% inhibition at 10 µM.

Sequence of Mitogen-activated protein kinase 14 (Q16539 whole entry): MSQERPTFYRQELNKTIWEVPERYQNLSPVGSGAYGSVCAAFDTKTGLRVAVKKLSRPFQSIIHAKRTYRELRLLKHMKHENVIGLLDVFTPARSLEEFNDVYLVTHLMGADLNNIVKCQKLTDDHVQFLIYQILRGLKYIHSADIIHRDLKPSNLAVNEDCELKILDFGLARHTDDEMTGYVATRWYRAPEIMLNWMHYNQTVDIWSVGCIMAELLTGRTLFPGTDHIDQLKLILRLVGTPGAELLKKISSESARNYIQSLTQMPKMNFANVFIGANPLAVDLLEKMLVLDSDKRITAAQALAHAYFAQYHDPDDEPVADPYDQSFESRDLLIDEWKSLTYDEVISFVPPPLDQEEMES
Sequence of Tyrosine-protein kinase Fyn (P06241 whole entry): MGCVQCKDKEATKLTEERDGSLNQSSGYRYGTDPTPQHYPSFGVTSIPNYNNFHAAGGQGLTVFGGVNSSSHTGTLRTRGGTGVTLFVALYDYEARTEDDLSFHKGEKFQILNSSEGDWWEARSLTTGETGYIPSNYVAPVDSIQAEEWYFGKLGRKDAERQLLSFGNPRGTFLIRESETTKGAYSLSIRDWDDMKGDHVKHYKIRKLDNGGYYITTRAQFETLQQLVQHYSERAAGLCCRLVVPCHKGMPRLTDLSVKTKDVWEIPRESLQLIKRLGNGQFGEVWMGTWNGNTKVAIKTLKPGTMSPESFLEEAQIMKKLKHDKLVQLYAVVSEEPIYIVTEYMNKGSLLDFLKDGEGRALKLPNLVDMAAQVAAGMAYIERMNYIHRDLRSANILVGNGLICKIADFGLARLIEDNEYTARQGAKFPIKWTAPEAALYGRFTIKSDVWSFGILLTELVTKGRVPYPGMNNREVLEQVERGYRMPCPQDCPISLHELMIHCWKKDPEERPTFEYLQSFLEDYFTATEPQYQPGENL
Sequence of Melanocortin receptor 5 (P33032 whole entry): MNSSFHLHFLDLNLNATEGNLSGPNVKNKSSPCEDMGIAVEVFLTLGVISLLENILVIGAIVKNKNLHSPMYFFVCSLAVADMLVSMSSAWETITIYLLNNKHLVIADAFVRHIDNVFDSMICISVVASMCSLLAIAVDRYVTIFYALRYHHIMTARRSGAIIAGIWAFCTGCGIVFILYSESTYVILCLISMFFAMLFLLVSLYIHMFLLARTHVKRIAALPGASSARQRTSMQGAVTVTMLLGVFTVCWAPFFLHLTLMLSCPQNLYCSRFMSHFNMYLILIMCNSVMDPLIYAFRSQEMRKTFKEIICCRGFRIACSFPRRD

CC(=O)Nc1ccc(O)cc1 [ACETAMINOPHEN]
Not Active: IC50 [1] | IC50 (Melanocortin receptor 5) | IC50 [2] | IC50 (Interstitial collagenase) | IC50 [3] | IC50 [4] | IC50 (Cytochrome P450 2A6) | Ki (Cytochrome P450 2A6)

COc1cc2c(c3oc(=O)c4c(c13)CCC4=O)[C@@H]1C=CO[C@@H]1O2 [AFLATOXIN]
Not Active: IC50 [1] | Ki [1] | IC50 (Melanocortin receptor 5) | Ki (Melanocortin receptor 5) | IC50 [2] | Ki [2] | IC50 (Interstitial collagenase) | Ki (Interstitial collagenase) | IC50 [3] | Ki [3] | IC50 [4] | Ki [4] | IC50 (Cytochrome P450 2A6) | Ki (Cytochrome P450 2A6)

N=C(N)NC(=O)c1nc(Cl)c(N)nc1N [AMILORIDE]
Not Active: IC50 [1] | IC50 (Melanocortin receptor 5) | IC50 [2] | IC50 (Interstitial collagenase) | IC50 [3] | IC50 [4] | IC50 (Cytochrome P450 2A6) | Ki (Cytochrome P450 2A6)

Cc1cc(=O)n(-c2ccccc2)n1C [ANTIPYRINE]
Not Active: IC50 [1] | IC50 (Melanocortin receptor 5) | IC50 [2] | IC50 (Interstitial collagenase) | IC50 [3] | IC50 [4] | IC50 (Cytochrome P450 2A6) | Ki (Cytochrome P450 2A6)

CN1C(=O)COc2c(C(=O)NC3CN4CCC3CC4)cc(Cl)cc21 (stereo not drawn) [AZASETRON]
Not Active: IC50 [1] | IC50 (Melanocortin receptor 5) | IC50 [2] | IC50 (Interstitial collagenase) | IC50 [3] | IC50 [4] | IC50 (Cytochrome P450 2A6) | Ki (Cytochrome P450 2A6)

C[C@H]1C[C@H]2[C@@H]3CCC4=CC(=O)C=C[C@]4(C)[C@@]3(Cl)[C@@H](O)C[C@]2(C)[C@@]1(O)C(=O)CO [BECLOMETHASONE]
Not Active: IC50 [1] | IC50 (Melanocortin receptor 5) | IC50 [2] | IC50 (Interstitial collagenase) | IC50 [3] | IC50 [4] | IC50 (Cytochrome P450 2A6) | Ki (Cytochrome P450 2A6)

CCOC(=O)[C@H](CCc1ccccc1)N[C@H]1CCc2ccccc2N(CC(=O)O)C1=O [BENAZEPRIL]
Not Active: IC50 [1] | IC50 (Melanocortin receptor 5) | IC50 [2] | IC50 (Interstitial collagenase) | IC50 [3] | IC50 [4] | IC50 (Cytochrome P450 2A6) | Ki (Cytochrome P450 2A6)

Nc1c(CC(=O)O)cccc1C(=O)c1ccc(Br)cc1 [BROMFENAC]
Not Active: IC50 [1] | IC50 (Melanocortin receptor 5) | IC50 [2] | IC50 (Interstitial collagenase) | IC50 [3] | IC50 [4] | IC50 (Cytochrome P450 2A6) | Ki (Cytochrome P450 2A6)

CCCCN1CCCCC1C(=O)Nc1c(C)cccc1C.Cl (stereo not drawn) [BUPIVACAINE HYDROCHLORIDE]
Not Active: IC50 [1] | IC50 (Melanocortin receptor 5) | IC50 [2] | IC50 (Interstitial collagenase) | IC50 [3] | IC50 [4] | IC50 (Cytochrome P450 2A6) | Ki (Cytochrome P450 2A6)

O=C1CC2(CCCC2)CC(=O)N1CCCCN1CCN(c2ncccn2)CC1 [BUSPIRONE]
Not Active: IC50 [1] | IC50 (Melanocortin receptor 5) | IC50 [2] | IC50 (Interstitial collagenase) | IC50 [3] | IC50 [4] | IC50 (Cytochrome P450 2A6) | Ki (Cytochrome P450 2A6)

C[C@@]12C(=O)OC(=O)[C@]1(C)[C@H]1CC[C@@H]2O1 [CANTHARIDIN]
Not Active: IC50 [1] | IC50 (Melanocortin receptor 5) | IC50 [2] | IC50 (Interstitial collagenase) | IC50 [3] | IC50 [4] | IC50 (Cytochrome P450 2A6) | Ki (Cytochrome P450 2A6)

CC1=C(C(=O)O)N2C(=O)[C@@H](NC(=O)[C@H](N)c3ccccc3)[C@H]2SC1 [CEPHALEXIN ANHYDROUS]
Not Active: IC50 [1] | IC50 (Melanocortin receptor 5) | IC50 [2] | IC50 (Interstitial collagenase) | IC50 [3] | IC50 [4] | IC50 (Cytochrome P450 2A6) | Ki (Cytochrome P450 2A6)

ClC(Cl)Cl [CHLOROFORM]
Not Active: IC50 [1] | IC50 (Melanocortin receptor 5) | IC50 [2] | IC50 (Interstitial collagenase) | IC50 [3] | IC50 [4] | IC50 (Cytochrome P450 2A6) | Ki (Cytochrome P450 2A6)

C=C1CC[C@H](O)C/C1=C/C=C1\CCC[C@]2(C)[C@@H]([C@H](C)CCCC(C)C)CC[C@@H]12 [CHOLECALCIFEROL]
Not Active: IC50 [1] | IC50 (Melanocortin receptor 5) | IC50 [2] | IC50 (Interstitial collagenase) | IC50 [3] | IC50 [4] | IC50 (Cytochrome P450 2A6) | Ki (Cytochrome P450 2A6)
